Laboratory results as given in paper PMC9965875 (Pharmaceutics, 2023).
Where two headings read alike, the source gives them in different places.

Legend:
[1] = in vitro; details: BALB/c, mouse
[2] = tested on: Leishmania (L.) infantum promastigotes (strain MHOM/MA/67/ITMAP-263); assay: organism not typed; format: cell-based; details: read-out: Anti-Promastigote Activity (IC50)

Row | Structure (SMILES) | IC50 ([2]; 24 h) [µM] | IC50 [2] [µM] | cytotoxicity at 10 µM [1] [%] | also measured
1 | C[C@@H]1[C@H](O)[C@@H](C)/C=C/C=C/C=C/C=C/C=C/C=C/C=C/[C@H](O[C@@H]2O[C@H](C)[C@@H](O)[C@H](N)[C@@H]2O)C[C@@H]2O[C@](O)(C[C@@H](O)C[C@@H](O)[C@H](O)CC[C@@H](O)C[C@@H](O)CC(=O)O[C@H]1C)C[C@H](O)[C@H]2C(=O)O [Amphotericin B, reference compound] | 0.17 ± 0.09 |  |  | EC50 [1]: 3.1 ± 0.6 µM
2 | Clc1c2c(nc3ccccc13)CCCC2 [Compound 5.a] | > 100 |  |  | 
3 | Clc1ccc2c(Cl)c3c(nc2c1)CCCC3 [Compound 5.b] | > 100 |  |  | 
4 | CC(=O)NCCCCCCNc1c2c(nc3ccccc13)CCCC2 [Compound 7.a] |  | > 100 |  | 
5 | CC(=O)NCCCCCCCCNc1c2c(nc3ccccc13)CCCC2 [Compound 7.b] |  | > 100 |  | 
6 | CC(=O)NCCCCCCCCCCNc1c2c(nc3ccccc13)CCCC2 [Compound 7.c] | > 100 |  |  | 
7 | CC(=O)NCCCCCCNc1c2c(nc3cc(Cl)ccc13)CCCC2 [Compound 7.d] |  | > 100 |  | 
8 | CC(=O)NCCCCCCCCNc1c2c(nc3cc(Cl)ccc13)CCCC2 [Compound 7.e] | > 100 |  |  | 
9 | CC(=O)NCCCCCCCCCCNc1c2c(nc3cc(Cl)ccc13)CCCC2 [Compound 7.f] | 11.2 ± 0.66 |  | 77.5 | 
10 | O=CNNc1c2c(nc3ccccc13)CCCC2 [Compound 8.a] | > 50 |  |  | 
11 | O=CNCNc1c2c(nc3ccccc13)CCCC2 [Compound 8.b] | 5.64 ± 0.65 |  | 88.1 | 
12 | O=CNCCNc1c2c(nc3ccccc13)CCCC2 [Compound 8.c] | 1.69 ± 0.22 |  | 99.5 | 
13 | O=CNCCCNc1c2c(nc3ccccc13)CCCC2 [Compound 8.d] | 14.2 ± 0.98 |  |  | cytotoxicity at 50 µM [1]: 100%
14 | O=CNCCCCCCNc1c2c(nc3ccccc13)CCCC2 [Compound 8.e] | 3.23 ± 0.41 |  | 94.7 | 
15 | O=CNCCCCCCCCNc1c2c(nc3ccccc13)CCCC2 [Compound 8.f] | 1.55 ± 0.38 |  | 91.2 | 
16 | O=C1C(Cl)=C(NCCCNc2c3c(nc4ccccc24)CCCC3)C(=O)C(Cl)=C1NCCCNc1c2c(nc3ccccc13)CCCC2 [Compound 9.b] |  | > 100 |  | 
17 | O=C1C=C(NCCCNc2c3c(nc4cc(Cl)ccc24)CCCC3)C(=O)C=C1NCCCNc1c2c(nc3cc(Cl)ccc13)CCCC2 [Compound 9.c] |  | > 50 |  | 
18 | O=C1C(Cl)=C(NCCCNc2c3c(nc4cc(Cl)ccc24)CCCC3)C(=O)C(Cl)=C1NCCCNc1c2c(nc3cc(Cl)ccc13)CCCC2 [Compound 9.d] |  | 2.17 ± 0.45 |  | 
19 | c1ccc2c(NCCCCCNc3c4c(nc5ccccc35)CCCC4)c3c(nc2c1)CCCC3 [Compound 10.d] | > 50 |  |  | 
20 | c1ccc2c(NCCCCCCCCNc3c4c(nc5ccccc35)CCCC4)c3c(nc2c1)CCCC3 [Compound 10.e] | 2.99 ± 0.98 |  | 99.5 | 
21 | c1ccc2c(NCCCCCCCCCCNc3c4c(nc5ccccc35)CCCC4)c3c(nc2c1)CCCC3 [Compound 10.f] | 0.94 ± 0.33 |  | 99.5 | 
22 | c1ccc2c(NCCCCCCCCCCCCNc3c4c(nc5ccccc35)CCCC4)c3c(nc2c1)CCCC3 [Compound 10.g] | 0.37 ± 0.06 |  | 99.7 | 
23 | Clc1ccc2c(NCCNc3c4c(nc5cc(Cl)ccc35)CCCC4)c3c(nc2c1)CCCC3 [Compound 10.h] |  | 9.5 ± 0.51 |  | melting point: 89 to 95 °C
24 | Clc1ccc2c(NCCCNc3c4c(nc5cc(Cl)ccc35)CCCC4)c3c(nc2c1)CCCC3 [Compound 10.i] |  | 8.58 ± 0.47 | 90.4 | 
25 | Clc1ccc2c(NCCCCNc3c4c(nc5cc(Cl)ccc35)CCCC4)c3c(nc2c1)CCCC3 [Compound 10.j] |  | 8.56 ± 1.56 |  | EC50 [1]: 9.02 ± 1.79 µM
26 | Clc1ccc2c(NCCCCCNc3c4c(nc5cc(Cl)ccc35)CCCC4)c3c(nc2c1)CCCC3 [Compound 10.k] |  | 5.26 ± 4.89 | 87.5 | 
27 | Clc1ccc2c(NCCCCCCCCCCNc3c4c(nc5cc(Cl)ccc35)CCCC4)c3c(nc2c1)CCCC3 [Compound 10.m] |  | 1.92 ± 0.21 | 99 | 
28 | Clc1ccc2c(NCCCCCCCCCCCCNc3c4c(nc5cc(Cl)ccc35)CCCC4)c3c(nc2c1)CCCC3 [Compound 10.n] |  | 3.5 ± 0.63 |  | cytotoxicity at 50 µM [1]: 92.5%
29 | Clc1ccc2c(NCCCCCCCCCCCCNc3ccnc4cc(Cl)ccc34)ccnc2c1 [Compound 12, N^1,N^12-bis(7-chloroquinolin-4-yl)dodecane-1,12-diamine] | 0.6 ± 0.11 |  |  | EC50 [1]: 11.7 ± 3.96 µM
